# In PubChem BioAssay (NCI):
#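 Cultured in 96-well plates, cells were exposed to test compound for 48 hours across five concentrations. TGI: concentration producing complete growth inhibition.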
# Legend:
# Experiment in all cases: growth of human tumour cells (NCI), 48 h
# 786-0 renal = test system: 786-0 renal
# A498 renal = test system: A498 renal
# A549 NSCLC = test system: A549 NSCLC
# ACHN renal = test system: ACHN renal
# CAKI-1 renal = test system: CAKI-1 renal
# CCRF-CEM leukemia = test system: CCRF-CEM leukemia
# DLD-1 colon = test system: DLD-1 colon
# DMS 114 small cell lung = test system: DMS 114 small cell lung
# DMS 273 small cell lung = test system: DMS 273 small cell lung
# EKVX NSCLC = test system: EKVX NSCLC
# HCC-2998 colon = test system: HCC-2998 colon
# HCT-15 colon = test system: HCT-15 colon
# HL-60(TB) leukemia = test system: HL-60(TB) leukemia
# HOP-18 NSCLC = test system: HOP-18 NSCLC
# HOP-62 NSCLC = test system: HOP-62 NSCLC
# HOP-92 NSCLC = test system: HOP-92 NSCLC
# HT29 colon = test system: HT29 colon
# IGROV1 ovarian = test system: IGROV1 ovarian
# K-562 leukemia = test system: K-562 leukemia
# KM12 colon = test system: KM12 colon
# KM20L2 colon = test system: KM20L2 colon
# LXFL 529 NSCLC = test system: LXFL 529 NSCLC
# M14 melanoma = test system: M14 melanoma
# M19-MEL melanoma = test system: M19-MEL melanoma
# MOLT-4 leukemia = test system: MOLT-4 leukemia
# NCI-H226 lung = test system: NCI-H226 lung
# NCI-H23 lung = test system: NCI-H23 lung
# NCI-H460 lung = test system: NCI-H460 lung
# NCI-H522 lung = test system: NCI-H522 lung
# OVCAR-4 ovarian = test system: OVCAR-4 ovarian
# OVCAR-5 ovarian = test system: OVCAR-5 ovarian
# OVCAR-8 ovarian = test system: OVCAR-8 ovarian
# RPMI-8226 leukemia = test system: RPMI-8226 leukemia
# RXF 393 renal = test system: RXF 393 renal
# SF-268 CNS = test system: SF-268 CNS
# SF-295 CNS = test system: SF-295 CNS
# SF-539 CNS = test system: SF-539 CNS
# SK-MEL-2 melanoma = test system: SK-MEL-2 melanoma
# SK-MEL-28 melanoma = test system: SK-MEL-28 melanoma
# SK-MEL-5 melanoma = test system: SK-MEL-5 melanoma
# SK-OV-3 ovarian = test system: SK-OV-3 ovarian
# SN12C renal = test system: SN12C renal
# SNB-19 CNS = test system: SNB-19 CNS
# SNB-75 CNS = test system: SNB-75 CNS
# SR leukemia = test system: SR leukemia
# SW-620 colon = test system: SW-620 colon
# TK-10 renal = test system: TK-10 renal
# U251 CNS = test system: U251 CNS
# UACC-257 melanoma = test system: UACC-257 melanoma
# UACC-62 melanoma = test system: UACC-62 melanoma
# UO-31 renal = test system: UO-31 renal
# XF 498 CNS = test system: XF 498 CNS
# COLO 205 colon = test system: COLO 205 colon
# HCT-116 colon = test system: HCT-116 colon
# MALME-3M melanoma = test system: MALME-3M melanoma
# OVCAR-3 ovarian = test system: OVCAR-3 ovarian
structure (smiles),measurement,setting,value
CN(C)c1nc(N(C)C)sc(=O)n1,TGI,786-0 renal,> 100 µM
same,TGI,A498 renal,> 100 µM
same,TGI,A549 NSCLC,> 100 µM
same,TGI,ACHN renal,> 100 µM
same,TGI,CAKI-1 renal,> 100 µM
same,TGI,CCRF-CEM leukemia,> 100 µM
same,TGI,DLD-1 colon,> 100 µM
same,TGI,DMS 114 small cell lung,> 100 µM
same,TGI,DMS 273 small cell lung,> 100 µM
same,TGI,EKVX NSCLC,> 100 µM
same,TGI,HCC-2998 colon,> 100 µM
same,TGI,HCT-15 colon,> 100 µM
same,TGI,HL-60(TB) leukemia,> 100 µM
same,TGI,HOP-18 NSCLC,> 100 µM
same,TGI,HOP-62 NSCLC,> 100 µM
same,TGI,HOP-92 NSCLC,> 100 µM
same,TGI,HT29 colon,> 100 µM
same,TGI,IGROV1 ovarian,> 100 µM
same,TGI,K-562 leukemia,> 100 µM
same,TGI,KM12 colon,> 100 µM
same,TGI,KM20L2 colon,> 100 µM
same,TGI,LXFL 529 NSCLC,> 100 µM
same,TGI,M14 melanoma,> 100 µM
same,TGI,M19-MEL melanoma,> 100 µM
same,TGI,MOLT-4 leukemia,> 100 µM
same,TGI,NCI-H226 lung,> 100 µM
same,TGI,NCI-H23 lung,> 100 µM
same,TGI,NCI-H460 lung,> 100 µM
same,TGI,NCI-H522 lung,> 100 µM
same,TGI,OVCAR-4 ovarian,> 100 µM
same,TGI,OVCAR-5 ovarian,> 100 µM
same,TGI,OVCAR-8 ovarian,> 100 µM
same,TGI,RPMI-8226 leukemia,> 100 µM
same,TGI,RXF 393 renal,> 100 µM
same,TGI,SF-268 CNS,> 100 µM
same,TGI,SF-295 CNS,> 100 µM
same,TGI,SF-539 CNS,> 100 µM
same,TGI,SK-MEL-2 melanoma,> 100 µM
same,TGI,SK-MEL-28 melanoma,> 100 µM
same,TGI,SK-MEL-5 melanoma,> 100 µM
same,TGI,SK-OV-3 ovarian,> 100 µM
same,TGI,SN12C renal,> 100 µM
same,TGI,SNB-19 CNS,> 100 µM
same,TGI,SNB-75 CNS,> 100 µM
same,TGI,SR leukemia,> 100 µM
same,TGI,SW-620 colon,> 100 µM
same,TGI,TK-10 renal,> 100 µM
same,TGI,U251 CNS,> 100 µM
same,TGI,UACC-257 melanoma,> 100 µM
same,TGI,UACC-62 melanoma,> 100 µM
same,TGI,UO-31 renal,> 100 µM
same,TGI,XF 498 CNS,> 100 µM
COc1ccc2c3c([nH]c2c1CC=C(C)C)C(=O)C=C(C)C3=O,TGI,786-0 renal,> 25 µM
same,TGI,A549 NSCLC,> 25 µM
same,TGI,ACHN renal,> 25 µM
same,TGI,CAKI-1 renal,> 25 µM
same,TGI,CCRF-CEM leukemia,> 25 µM
same,TGI,COLO 205 colon,> 25 µM
same,TGI,DLD-1 colon,> 25 µM
same,TGI,DMS 114 small cell lung,> 25 µM
same,TGI,DMS 273 small cell lung,> 25 µM
same,TGI,EKVX NSCLC,> 25 µM
same,TGI,HCC-2998 colon,> 25 µM
same,TGI,HCT-116 colon,> 25 µM
same,TGI,HCT-15 colon,> 25 µM
same,TGI,HL-60(TB) leukemia,> 25 µM
same,TGI,HOP-18 NSCLC,> 25 µM
same,TGI,HOP-62 NSCLC,> 25 µM
same,TGI,HOP-92 NSCLC,> 25 µM
same,TGI,HT29 colon,> 25 µM
same,TGI,IGROV1 ovarian,> 25 µM
same,TGI,K-562 leukemia,> 25 µM
same,TGI,KM12 colon,> 25 µM
same,TGI,KM20L2 colon,> 25 µM
same,TGI,LXFL 529 NSCLC,> 25 µM
same,TGI,M14 melanoma,> 25 µM
same,TGI,M19-MEL melanoma,> 25 µM
same,TGI,MALME-3M melanoma,> 25 µM
same,TGI,MOLT-4 leukemia,> 25 µM
same,TGI,NCI-H226 lung,> 25 µM
same,TGI,NCI-H23 lung,> 25 µM
same,TGI,NCI-H460 lung,> 25 µM
same,TGI,NCI-H522 lung,> 25 µM
same,TGI,OVCAR-3 ovarian,> 25 µM
same,TGI,OVCAR-4 ovarian,> 25 µM
same,TGI,OVCAR-5 ovarian,> 25 µM
same,TGI,OVCAR-8 ovarian,> 25 µM
same,TGI,RPMI-8226 leukemia,> 25 µM
same,TGI,RXF 393 renal,> 25 µM
same,TGI,SF-268 CNS,> 25 µM
same,TGI,SF-295 CNS,> 25 µM
same,TGI,SF-539 CNS,> 25 µM
same,TGI,SK-MEL-2 melanoma,> 25 µM
same,TGI,SK-MEL-28 melanoma,> 25 µM
same,TGI,SK-MEL-5 melanoma,> 25 µM
same,TGI,SK-OV-3 ovarian,> 25 µM
same,TGI,SN12C renal,> 25 µM
same,TGI,SNB-19 CNS,> 25 µM
same,TGI,SNB-75 CNS,> 25 µM
same,TGI,SR leukemia,> 25 µM
same,TGI,SW-620 colon,> 25 µM
same,TGI,TK-10 renal,> 25 µM
same,TGI,U251 CNS,> 25 µM
same,TGI,UACC-257 melanoma,> 25 µM
same,TGI,UACC-62 melanoma,> 25 µM
same,TGI,UO-31 renal,> 25 µM
same,TGI,XF 498 CNS,> 25 µM
